Reference: patent US20140128352A1, “COMPOUNDS AND METHODS FOR MODULATING MITOCHONDRIAL METABOLISM AND REACTIVE OXYGEN SPECIES PRODUCTION” (Buck Institute for Research on Aging, priority 2012, published 2014)
“Also recorded” adds a separate entry of the source. Where two headings read alike, the source gives them in different places.

Tests used:
[1] = biological target: T1, succinate dehydrogenase/complex II (SDH) (Rattus norvegicus, UniProt P21913+Q641Z9+Q6PCT8+Q920L2); experiment: High-throughput screen: ROS production from succinate dehydrogenase/complex II (SDH); assay type: biochemical; details: percent change in ROS from DMSO controls
T1 construct: freshly isolated muscle mitochondria were assayed; from tissue; host or cells: rat skeletal muscle mitochondria (Wistar, Harlan Laboratories)
Protocol: (§1) Skeletal muscle mitochondria were isolated from 5-8 week old female Wistar rats (Harlan Laboratories). Minced muscle was homogenized in buffer containing bacterial protease Type VIII prior to differential centrifugation to separate mitochondria from other tissue components. Unless otherwise stated, freshly isolated muscle mitochondria were assayed in buffer containing 120 mM KCl, 5 mM HEPES, 1 mM EGTA, 0.3% (w/v) bovine serum albumin. Where indicated, CaCl2 was added to yield a final free concentration of 250 nM calcium at pH 7.0 at 37° C.
Just prior to use, plates were brought to room temperature and diluted 300-fold with standard buffer (13.3X=33.3 μM). To monitor the performance of each assay throughout screening and to provide intra-plate normalization reference points, DMSO negative controls and known mitochondrial inhibitor positive controls were included on each Master compound plate.
(§2) Total amounts of superoxide and H2O2 production were determined fluorometrically as H2O2, without distinguishing between them, in the presence of exogenous superoxide dismutase (25 units/mL final), horseradish peroxidase (1 unit/mL final), and Amplex UltraRed (25 μM final) as described (Affourtit, C. et al. (2012) Measurement of proton leak and electron leak in isolated mitochondria. Methods Mol. Biol. 810: 165-82). Just prior to use, a bulk 3.3X solution was made in standard buffer and distributed into a 2 mL deep well 96-well transfer plate.
To assess the effects of a compound on ROS production from succinate dehydrogenase/complex II (SDH), Start Solution containing 15 μM palmitoyl carnitine, 2.5 μM antimycin A and 2 μM myxothiazol was distributed into standard 96-well transfer plates. A Biomek FX workstation was programmed to dispense solutions into black 96-well assay plates. Solutions were dispensed to all assay plates in the following order: ROS Detection solution described in Example 3, Mitochondria solution described in Example 1 to a final concentration of 0.3 mg/ml, and Compound dilutions described in Example 2. Duplicate assay plates were made and each was initiated by the addition of 3.3X Start solution containing 15 μM palmitoyl carnitine, 2.5 μM antimycin A and 2 μM myxothiazol. Plates were incubated in the dark at room temperature for 30-40 minutes before acquiring endpoint fluorescence using a Victor 3V plate reader (Perkin Elmer) equipped with 550/590 nm excitation/emission filters.
(§3) The fluorescence values in each well were scaled as the percent change from the intra-plate DMSO controls with the appropriate inhibitor positive controls defined as −100%. Following initial scaling, intra-plate normalized values were subjected to Tukey's two-way median polish to remove row and column dependent positional effects (Malo et al., 2006).

[2] = biological target: T2, outer ubiquinone binding site of complex III (IIIQO) (Rattus norvegicus, UniProt P00159+P20788); experiment: High-throughput screen: ROS production from outer ubiquinone binding site of complex III (IIIQO); assay type: biochemical
T2 construct: freshly isolated muscle mitochondria were assayed; from tissue; host or cells: rat skeletal muscle mitochondria (Wistar, Harlan Laboratories)
Protocol: as §1
(§4) Compounds (10 mM in DMSO) were randomly selected from a library of 24,000 compounds obtained from ChemBridge and curated by the lab of Robert Hughes at the Buck Institute. Master screening plates were prepared using a Biomek FX liquid handling workstation (Beckman) to transfer 1 μL of each compound into individual wells on 96-well storage plates (80 compounds per plate). Master plates were sealed with foil and stored at −80° C. Just prior to use, plates were brought to room temperature and diluted 300-fold with standard buffer (13.3X=33.3 μM). To monitor the performance of each assay throughout screening and to provide intra-plate normalization reference points, DMSO negative controls and known mitochondrial inhibitor positive controls were included on each Master compound plate.
as §2
To assess the effects of a compound on ROS production from the outer ubiquinone binding site of complex III (IIIQO), Start Solution containing 5 mM succinate, 4 μM rotenone and 2.5 μM antimycin A was distributed into standard 96-well transfer plates. A Biomek FX workstation was programmed to dispense solutions into black 96-well assay plates. Solutions were dispensed to all assay plates in the following order: ROS Detection solution described in Example 3, Mitochondria solution described in Example 1 to a final concentration of 0.1 mg/ml, and Compound dilutions described in Example 2. Duplicate assay plates were made and each was initiated by the addition of 3.3X Start solution containing 5 mM succinate, 4 μM rotenone and 2.5 μM antimycin A. Plates were incubated in the dark at room temperature for 30-40 minutes before acquiring endpoint fluorescence using a Victor 3V plate reader (Perkin Elmer) equipped with 550/590 nm excitation/emission filters.
as §3

[3] = biological target: T3, glycerol-3-phosphate dehydrogenase (GPDH) (Rattus norvegicus, UniProt P35571); experiment: High-throughput screen: ROS production from glycerol-3-phosphate dehydrogenase (GPDH); assay type: biochemical; parameters: inhibition: dose or concentration left out as unconfirmed; details: for GPDH / inhibition: percent change in ROS from DMSO controls; for inhibition at 2.5 µM: Table 6, 25 mM glycerol phosphate, rotenone, antimycin A, malonate, myxothiazol, compounds 2.5 μM, scaled to IQ positive controls, read-out: % Reduction in ROS Production (GPDH)
T3 construct: The activity of GPDH in intact mitochondria (0.3 mg/mL) was measured; from tissue; host or cells: rat skeletal muscle mitochondria (Wistar, Harlan Laboratories)
T3 sequence (P35571 43-727): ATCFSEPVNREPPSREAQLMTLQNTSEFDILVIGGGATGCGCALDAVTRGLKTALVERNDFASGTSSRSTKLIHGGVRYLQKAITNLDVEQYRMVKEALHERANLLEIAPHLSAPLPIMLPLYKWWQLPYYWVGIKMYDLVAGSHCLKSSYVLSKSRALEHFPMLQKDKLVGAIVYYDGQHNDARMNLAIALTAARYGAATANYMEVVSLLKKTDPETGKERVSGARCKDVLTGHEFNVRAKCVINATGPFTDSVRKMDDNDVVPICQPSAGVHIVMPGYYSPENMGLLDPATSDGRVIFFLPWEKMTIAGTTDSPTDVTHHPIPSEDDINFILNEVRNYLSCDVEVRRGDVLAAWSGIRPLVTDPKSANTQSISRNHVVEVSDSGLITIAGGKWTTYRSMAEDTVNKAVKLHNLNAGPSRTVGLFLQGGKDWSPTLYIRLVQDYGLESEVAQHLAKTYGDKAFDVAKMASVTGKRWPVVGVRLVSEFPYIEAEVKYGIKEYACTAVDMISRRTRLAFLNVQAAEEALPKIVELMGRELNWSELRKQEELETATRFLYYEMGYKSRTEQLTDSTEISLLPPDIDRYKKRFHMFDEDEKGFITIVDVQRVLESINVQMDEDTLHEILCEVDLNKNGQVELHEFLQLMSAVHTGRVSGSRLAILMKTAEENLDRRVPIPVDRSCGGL
Protocol: as §1, §4, §2
To assess the effects of a compound on ROS production from glycerol-3-phosphate dehydrogenase (GPDH), Start Solution containing 25 mM glycerol phosphate, 4 μM rotenone, 2.5 μM antimycin A, 1 mM malonate, 2 μM myxothiazol was distributed into standard 96-well transfer plates. A Biomek FX workstation was programmed to dispense solutions into black 96-well assay plates. Solutions were dispensed to all assay plates in the following order: ROS Detection solution described in Example 3, Mitochondria solution described in Example 1 to a final concentration of 0.2 mg/ml, and Compound dilutions described in Example 2. Duplicate assay plates were made and each was initiated by the addition of 3.3X Start solution containing 25 mM glycerol phosphate, 4 μM rotenone, 2.5 μM antimycin A, 1 mM malonate, 2 μM myxothiazol. Plates were incubated in the dark at room temperature for 30-40 minutes before acquiring endpoint fluorescence using a Victor 3V plate reader (Perkin Elmer) equipped with 550/590 nm excitation/emission filters.
The fluorescence values in each well were scaled as the percent change from the intra-plate DMSO controls. […] Following initial scaling, intra-plate normalized values were subjected to Tukey's two-way median polish to remove row and column dependent positional effects (Malo et al., 2006).

[4] = test system: mitochondrial respiration; experiment: Mitochondrial respiration, Seahorse XF24; assay type: biochemical, rat; details: complex I, complex II or glycerol phosphate substrates; states 2, 3, 4
Protocol: Measurements of ΔΨm described in the previous examples were made under “resting” conditions in which substrates were present but ΔΨm was not coupled to ATP (energy) production by mitochondria. To test the effect of candidate compounds on mitochondrial bioenergetics under energy producing conditions, respiratory coupling parameters were measured in isolated mitochondria in microplate format using a Seahorse XF 24 analyzer (Rogers, G. et al. (2011) High Throughput Microplate Respiratory Measurements Using Minimal Quantities of Isolated Mitochondria. PLoS One. 6(7): e21746). […] ATP synthesis was terminated by injection of oligomycin (0.5 μg/mL) and leak-dependent respiration was measured (state 4o). Finally, the complex III inhibitors antimycin A (2.5 uM) and myxothiazol (2 μM) were injected to terminate respiration. Respiratory profiles were evaluated for signs of inhibition (decreased states 2, 3, or 4o) or uncoupling (increased states 2 or 4o) by candidate compounds. Seahorse XF experiments were performed in a mannitol-sucrose based buffer as described in Rogers et al. 2011. For respiration experiments driven by glycerol phosphate, this buffer was supplemented with CaCl2 to a final free concentration of 250 nM.

[5] = test system: ubiquinone binding site of complex I (IQ); experiment: High-throughput screen: ROS production from ubiquinone binding site of complex I (IQ), isolated skeletal muscle mitochondria; assay type: biochemical, rat; details: for IQ: percent change in ROS from DMSO controls
[6] = test system: mitochondrial membrane potential (ΔΨm); experiment: Membrane potential (ΔΨm) counterscreen with TMRM; details: malate, nigericin
[7] = biological target: T4, flavin binding site of complex I (IF) (Rattus norvegicus, UniProt Q5XIH3); experiment: High-throughput screen: ROS production from flavin binding site of complex I (IF); assay type: biochemical
T4 construct: freshly isolated muscle mitochondria were assayed; from tissue; host or cells: rat skeletal muscle mitochondria (Wistar, Harlan Laboratories)
Protocol: as §1
Master screening plates were prepared using a Biomek FX liquid handling workstation (Beckman) to transfer 1 μL of each compound into individual wells on 96-well storage plates (80 compounds per plate). […] Just prior to use, plates were brought to room temperature and diluted 300-fold with standard buffer (13.3X=33.3 μM). To monitor the performance of each assay throughout screening and to provide intra-plate normalization reference points, DMSO negative controls and known mitochondrial inhibitor positive controls were included on each Master compound plate.
as §2
To assess the effects of a compound on ROS production from the flavin binding site of complex I (IF), Start Solution containing 5 mM glutamate, 5 mM malate and 4 μM rotenone was distributed into standard 96-well transfer plates. A Biomek FX workstation was programmed to dispense solutions into black 96-well assay plates. Solutions were dispensed to all assay plates in the following order: ROS Detection solution described in Example 3, Mitochondria solution described in Example 1 to a final concentration of 0.3 mg/ml, and Compound dilutions described in Example 2. Duplicate assay plates were made and each was initiated by the addition of 3.3X Start solution containing 5 mM glutamate, 5 mM malate and 4 μM rotenone. Plates were incubated in the dark at room temperature for 30-40 minutes before acquiring endpoint fluorescence using a Victor 3V plate reader (Perkin Elmer) equipped with 550/590 nm excitation/emission filters.
The fluorescence values in each well were scaled as the percent change from the intra-plate DMSO controls with the appropriate inhibitor positive controls defined as −100%. Following initial scaling, intra-plate normalized values were subjected to Tukey's two-way median polish to remove row and column dependent positional effects (Malo, N. et al. (2006) Statistical practice in high-throughput screening data analysis. Nat. Biotechnol. 24(2): 167-75).

[8] = test system: mitochondrial membrane potential (ΔΨm); experiment: Retest ΔΨm assays (different substrates, with and without nigericin); assay type: biochemical, rat; details: various substrates
Protocol: The five core ROS assays and single ΔΨm assay were carried out as in the initial high-throughput screen. In addition, several assays were included to help validate the specificity of the compounds for a given site of production. […] The use of different substrates was designed to reveal compounds that disrupt mitochondrial function in a substrate specific manner. […] Most frequently, these changes involved the use of different substrates to supply electrons from an alternative entry point in the chain. If a site of ROS production is being targeted selectively by a compound, then in many cases the supply of electrons should not influence the effectiveness of this compound at suppressing ROS production. […] Candidate compounds that remained site-selective following robotics assisted retesting were subsequently tested for effects on ROS production and ΔΨm with a Varian Cary Eclipse fluorimeter (excitation 550 nm, emission at 590 nm). This experimental format allows kinetic measurements of ROS production and ΔΨm with more accurate temperature control, sample stirring, and background correction. […] Conditions were generally as described for the various microplate assays with the following exceptions: HRP was increased to 5 units/mL, Amplex UltraRed was increased to 50 μM, temperature was always 37° C., samples were continuously stirred, and baseline rates of fluorescence change in the absence of substrate were acquired prior to their addition. Example protocols for cuvette based measurement of site IQ and site IIIQo ROS production are described in Affourtit et al., 2012. […] Biochim. Biophys. Acta. 1777(5): 397-403. An additional advantage of the kinetic cuvette based assays was the ability to perform inline additions to monitor the relative effect of a test compound against multiple conditions in the same cuvette. Therefore, the selectivity of a compound for one site of ROS production can be monitored by adding substrates and select known inhibitors in defined sequences to alternately provide and trap electrons at various sites in the chain. […]

[9] = Table 7, percent change in ROS from DMSO controls
[10] = Table 8, percent change in ROS from DMSO controls
[11] = Table 9, percent change in ROS from DMSO controls
[12] = Table 7, percent change in ROS from DMSO controls, read-out: IIIQO
[13] = Table 9, percent change in ROS from DMSO controls, read-out: IIIQo
[14] = Table 3, 5 mM glutamate, 5 mM malate, 4 μM rotenone, compounds 2.5 μM, percent change from DMSO, positive control −100%, read-out: % Reduction in ROS production (IF)
[15] = Table 7, percent change in ROS from DMSO controls, read-out: IF
[16] = Table 4, 5 mM succinate, 4 μM rotenone, 2.5 μM antimycin A, compounds 2.5 μM, percent change from DMSO, read-out: % Reduction in ROS production (IIIQO)

T4 sequence (Q5XIH3 21-464 limits assumed, one chain of several): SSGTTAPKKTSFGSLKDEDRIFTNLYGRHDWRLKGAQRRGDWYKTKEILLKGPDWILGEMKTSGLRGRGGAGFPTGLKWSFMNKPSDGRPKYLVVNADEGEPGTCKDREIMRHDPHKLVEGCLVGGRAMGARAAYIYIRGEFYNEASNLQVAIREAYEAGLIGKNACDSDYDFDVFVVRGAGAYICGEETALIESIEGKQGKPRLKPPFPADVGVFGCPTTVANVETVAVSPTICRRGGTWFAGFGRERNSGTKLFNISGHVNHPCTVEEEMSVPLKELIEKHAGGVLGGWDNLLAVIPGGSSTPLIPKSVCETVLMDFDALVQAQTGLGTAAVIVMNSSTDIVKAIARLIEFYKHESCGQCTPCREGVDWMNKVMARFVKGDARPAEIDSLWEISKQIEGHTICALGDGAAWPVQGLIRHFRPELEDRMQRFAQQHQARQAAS
T1 sequence (Q920L2 35-656): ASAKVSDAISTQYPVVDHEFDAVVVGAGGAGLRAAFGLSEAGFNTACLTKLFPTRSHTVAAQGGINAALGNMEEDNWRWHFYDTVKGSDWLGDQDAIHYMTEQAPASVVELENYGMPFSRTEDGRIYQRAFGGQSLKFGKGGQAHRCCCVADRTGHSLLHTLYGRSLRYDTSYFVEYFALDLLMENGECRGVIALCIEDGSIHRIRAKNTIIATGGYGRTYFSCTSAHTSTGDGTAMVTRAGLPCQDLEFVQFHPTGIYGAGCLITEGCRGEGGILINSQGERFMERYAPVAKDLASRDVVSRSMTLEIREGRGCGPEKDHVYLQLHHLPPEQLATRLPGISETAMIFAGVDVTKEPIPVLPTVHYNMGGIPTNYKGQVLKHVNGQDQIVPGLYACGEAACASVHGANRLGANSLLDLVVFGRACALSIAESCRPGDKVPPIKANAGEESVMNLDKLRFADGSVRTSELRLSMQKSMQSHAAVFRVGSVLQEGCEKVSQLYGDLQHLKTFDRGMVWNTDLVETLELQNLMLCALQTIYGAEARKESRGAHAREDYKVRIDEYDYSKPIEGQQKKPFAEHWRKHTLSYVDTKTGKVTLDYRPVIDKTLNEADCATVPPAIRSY
T1 sequence (P21913 31-282): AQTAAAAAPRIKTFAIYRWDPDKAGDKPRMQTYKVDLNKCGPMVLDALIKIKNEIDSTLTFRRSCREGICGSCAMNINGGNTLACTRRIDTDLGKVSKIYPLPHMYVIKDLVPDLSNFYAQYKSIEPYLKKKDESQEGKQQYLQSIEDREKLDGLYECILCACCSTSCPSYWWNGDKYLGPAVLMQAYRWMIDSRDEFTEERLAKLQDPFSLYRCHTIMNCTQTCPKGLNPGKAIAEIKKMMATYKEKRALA
T1 sequence (Q641Z9 30-169 limits assumed): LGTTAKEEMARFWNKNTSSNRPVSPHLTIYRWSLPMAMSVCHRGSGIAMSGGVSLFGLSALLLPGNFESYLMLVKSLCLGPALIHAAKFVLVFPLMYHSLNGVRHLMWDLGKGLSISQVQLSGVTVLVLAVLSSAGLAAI
T1 sequence (Q6PCT8 57-159): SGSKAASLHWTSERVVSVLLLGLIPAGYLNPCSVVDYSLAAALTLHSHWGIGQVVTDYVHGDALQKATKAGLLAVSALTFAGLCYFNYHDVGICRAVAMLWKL

SMILES | SDH ([1]; Table 8) | SDH ([1]; Table 9) | IIIQO [2, 10] | GPDH ([3]; Table 8) | GPDH ([3]; Table 9) | effect on mitochondrial respiration [4] | IQ ([5]; Table 7) | IQ ([5]; Table 8) | IQ ([5]; Table 9) | ΔΨm ([6]; Table 8, glutamate) | ΔΨm ([6]; Table 9, glutamate) | IF [7, 10] | IF [7, 11] | inhibition at 2.5 µM [2, 12] | inhibition at 2.5 µM [2, 13] | inhibition ([3]; Table 7) | inhibition at 2.5 µM [7, 14] | inhibition at 2.5 µM [7, 15] | inhibition at 2.5 µM ([1]; Table 7) | effect on ΔΨm [8] | also measured
O=[N+]([O-])c1ccc(Oc2ccc(S(=O)(=O)NC3CCCCC3)cc2)cc1 [Compound 4] | 0.8 | 0.8 | −0.3 | 2.8 | 2.8 | did not significantly inhibit or show signs of uncoupling respiration under any conditions except at 80 uM; also recorded: does not inhibit forward electron flow through CI | −47.9 | −47.9 | −47.9 | −0.9 | −0.9 | 3.1 | 3.1 |  |  |  |  |  |  |  | SDH ([1]; Table 7): 0.8; IIIQO [2, 9]: −0.3; IIIQO [2, 11]: −0.3; GPDH ([3]; Table 7): 2.8; % Reduction in ROS production (IQ) ([5]; Table 2, 5 mM succinate, compounds 2.5 μM, percent change from DMSO, positive control −100%): −47.9%; IF [7, 9]: 3.1
O=C(O)C1CCCCC1C(=O)NC1CCCCC1 (stereo not shown) [Compound 19] |  |  | 1.2 | −1.0 | −1.0 | inhibits ADP-stimulated respiration with complex I substrates; also recorded: no signs of uncoupling but did reveal a progressive inhibition of state 3 respiration (ATP producing) only with CI substrates | 0.0 | 0.0 | 0.0 | −1.4 | −1.4 | −25.6 | −25.6 | -1.2% | -1.2% | 1% | 25.6% | 25.6% |  |  | 
COc1cc(CN(CCN(C)C)Cc2ccccc2)cc(OC)c1 [Compound 31] | −6.0 | −6.0 | −1.4 | 0.5 | 0.5 |  | −1.4 | −1.4 | −1.4 | 0.3 | 0.3 | −7.6 | −7.6 | 1.4% | 1.4% | -0.5% | 7.6% | 7.6% | 6% |  | 
Cc1ccc(C)c(CN(CCCN(C)C)CCCN(C)C)c1 [Compound 32] | −6.8 | −6.8 | 2.5 | 0.2 | 0.2 | increases ADP-stimulated respiration specifically with complex I substrates; also recorded: significantly increased state 3 respiration specifically with CI substrates | −0.6 | −0.6 | −0.6 | −0.2 | −0.2 | −28.8 | −28.8 | -2.5% | -2.5% | -0.2% | 28.8% | 28.8% | 6.8% | without any significant effects on membrane potential | 
COc1ccc(Cl)cc1N(Cc1ccccc1)Cc1ccccc1 [Compound 34] | 3.9 | 3.9 | −49.4 | −4.0 | −4.0 |  | 4.0 | 4.0 | 4.0 | 3.4 | 3.4 | 5.6 | 5.6 | 49.4% | 49.4% | 4% |  | -5.6% | -3.9% | a consistent increase in ΔΨm was observed independent of both substrate and ΔpH at 8 μM; also recorded: increases ΔΨm at 8 μM but collapses ΔΨm above this concentration | inhibition at 2.5 µM [2, 16]: 49.4%
CC1=CC(C)(C)N(Cc2ccc([N+](=O)[O-])cc2)c2ccccc21 [Compound 37] | 1.2 | 1.2 | −32.1 | −0.6 | −0.6 | did not uncouple state 2 respiration; also recorded: does not show signs of uncoupling state 2 respiration at high concentrations | 0.3 | 0.3 | 0.3 | 1.5 | 1.5 | 0.6 | 0.6 | 32.1% | 32.1% | 0.6% |  | -0.6% | -1.2% |  | inhibition at 2.5 µM [2, 16]: 32.1%
O=C(O)CSc1cccc(C(=O)Nc2ccc(Br)cc2)c1 [Compound 47] | 1.3 | 1.3 | 0.0 | −14.1 | −14.1 |  | −0.1 | −0.1 | −0.1 | 0.0 | 0.0 | −0.5 | −0.5 | 0% | 0% | 14.1% |  | 0.5% | -1.3% |  | inhibition at 2.5 µM [3]: 14.1%
O=C(O)CCC(=O)Nc1ccc(-c2nc3cc4ccccc4cc3[nH]2)cc1 [Compound 61] |  |  |  |  |  |  | −17.1 |  |  |  |  |  |  | 2.4% |  | 3.8% |  | 4.8% | 4.5% | increased off-target effect on ΔΨm in the absence of nigericin | inhibition at 2.5 µM [3]: 48.3%
